Measured values reported in patent US7244855B2, “Synthesis of oligomeric epicatechin and catechin-derived procyanidins” (Mars, Inc., priority 2002, dated 2007).

What was measured:
[1] = tested on: MDA MB-231 human breast cancer cells; test: Cell cycle analysis by flow cytometry (Vindelov method); format: cell-based; conditions: for Effect on cell cycle (G0/G1 arrest), in words: procyanidin-treated MDA MB-231 cells, see Table 1; for Increase in G0/G1 arrest, synthetic compared to natural procyanidin: see Table 2
Procedure: The MDA MB-231 cell line was P53 defective, ER negative, and constitutively expressed K-ras. Cells were cultured in T-75s in IMEM medium (BioFluids Inc.) supplemented with 10% FBS (Gibco BRL Life Technologies) in a humidified 5% CO2 atmosphere at 37° C. […] See Vindelov, L. et al., “A Detergent Trypsin Method for the Preparation of Nuclei for Flow Cytometric DNA Analysis”, Cytometry, 1983, 3, 323–327. Analyses were performed by the Lombardi Cancer Center Flow Cytometry Core Facility at Georgetown University Medical Center.

[2] = tested on: human breast cancer cell lines; test: Cytotoxicity assay (microculture tetrazolium assay modified for crystal violet); format: cell-based
Procedure: The human breast cancer cell lines MCF-7, SKBR-3, MDA 435, and MDA MB-231 were obtained from the Lombardi Cancer Center Cell Culture Core Facility at Georgetown University Medical Center. The MDA MB-231 cell line was P53 defective, ER negative, and constitutively expressed K-ras. Cells were cultured in T-75s in IMEM medium (BioFluids Inc.) supplemented with 10% FBS (Gibco BRL Life Technologies) in a humidified 5% CO2 atmosphere at 37° C.
Cytotoxicity assays were performed on several human breast cancer cell lines treated with test compounds in a 96 well microtiter plate format using the microculture tetrazolium assay^28 modified for use with crystal violet rather than MTT. Briefly, 1–2×10^3 cells were added per well and allowed to culture in a humidified, 5% CO2 atmosphere until they reached approximately 50% confluence. Sterile filtered test compounds were added at various concentrations, and the plates were allowed to culture for an additional 12–36 hours. The growth medium was then removed, and each well was washed twice with 200 μL each of pH 7.4 PBS. […] At the end of 1 hour, the plates were scanned at 570 nm (ref. 405 nm) with a Molecular Devices Corporation microtiter plate reader, and the data was recorded with the SOFTMAX software program. The average of 3 readings was taken for each blank, control, vehicle, and test concentration for statistical data manipulation.

[3] = Table 3, 100 μM H2O2 + catalase, 24 hr
[4] = Table 3, 100 μM H2O2 + heat inactivated catalase, 24 hr
[5] = Table 2, natural versus synthetic, 200 μg/mL, 24 hr
[6] = Table 1, procyanidins purified from cocoa, 200 μg/mL, 24 hrs
[7] = Table 3, 200 μg/mL + 100 μM H2O2 + catalase, 24 hr
[8] = Table 3, 200 μg/mL + 100 μM H2O2 + heat inactivated catalase, 24 hr
[9] = Table 3, 200 μg/mL + 100 μM H2O2, 24 hr
[10] = Table 3, 200 μg/mL + catalase, 24 hr
[11] = Table 3, 200 μg/mL + heat inactivated catalase, 24 hr

Compound: OO [H2O2, hydrogen peroxide, reference compound]
- % G0/G1 [1, 3]: 35.20%
- % G2/M [1, 3]: 21.86%
- % S [1, 3]: 42.93%
- % G0/G1 [1, 4]: 20.27%
- % G2/M [1, 4]: 34.25%
- % S [1, 4]: 45.48%
- % G0/G1 ([1]; Table 3, 100 μM H2O2, 24 hr): 20.32%
- % G2/M ([1]; Table 3, 100 μM H2O2, 24 hr): 34.76%
- % S ([1]; Table 3, 100 μM H2O2, 24 hr): 44.92%
- Effect of hydrogen peroxide on cell cycle, in words ([1]; hydrogen peroxide at levels reported in the literature, see Table 3): shift in the cell cycle to G2/M with a decrease in G0/G1

Compound: Oc1cc(O)c2c(c1)O[C@H](c1ccc(O)c(O)c1)[C@H](O)[C@H]2c1c(O)cc(O)c2c1O[C@H](c1ccc(O)c(O)c1)[C@H](O)[C@H]2c1c(O)cc(O)c2c1O[C@H](c1ccc(O)c(O)c1)[C@H](O)[C@H]2c1c(O)cc(O)c2c1O[C@H](c1ccc(O)c(O)c1)[C@H](O)[C@H]2c1c(O)cc(O)c2c1O[C@H](c1ccc(O)c(O)c1)[C@H](O)C2 [Natural pentamer, epicatechin (4β,8)4-pentamer]
- % G0/G1 [1, 5]: 45.99%
- % G2/M [1, 5]: 15.76%
- % S [1, 5]: 38.25%

Compound: Oc1cc(O)c2c(c1)O[C@H](c1ccc(O)c(O)c1)[C@H](O)[C@H]2c1c(O)cc(O)c2c1O[C@H](c1ccc(O)c(O)c1)[C@H](O)[C@H]2c1c(O)cc(O)c2c1O[C@H](c1ccc(O)c(O)c1)[C@H](O)[C@H]2c1c(O)cc(O)c2c1O[C@H](c1ccc(O)c(O)c1)[C@H](O)C2 [Natural tetramer, epicatechin (4β,8)3-tetramer]
- % G0/G1 [1, 6]: 51.46%
- % G2/M [1, 6]: 20.30%
- % S [1, 6]: 28.25%
- % G0/G1 [1, 5]: 36.82%
- % G2/M [1, 5]: 19.02%
- % S [1, 5]: 43.37%
- Effect on cell cycle (G0/G1 arrest), in words [1]: only a slight effect

Compound: Oc1cc(O)c2c(c1)O[C@H](c1ccc(O)c(O)c1)[C@H](O)[C@H]2c1c(O)cc(O)c2c1O[C@H](c1ccc(O)c(O)c1)[C@H](O)[C@H]2c1c(O)cc(O)c2c1O[C@H](c1ccc(O)c(O)c1)[C@H](O)C2 [Natural trimer, epicatechin (4β,8)2-trimer]
- % G0/G1 [1, 6]: 43.22%
- % G2/M [1, 6]: 20.80%
- % S [1, 6]: 35.98%
- % G0/G1 [1, 5]: 28.46%
- % G2/M [1, 5]: 23.05%
- % S [1, 5]: 48.49%
- Effect on cell cycle (G0/G1 arrest), in words [1]: no effect

Compound: Oc1cc(O)c2c(c1)O[C@H](c1ccc(O)c(O)c1)[C@H](O)[C@H]2c1c(O)cc(O)c2c1O[C@H](c1ccc(O)c(O)c1)[C@H](O)[C@H]2c1c(O)cc(O)c2c1O[C@H](c1ccc(O)c(O)c1)[C@H](O)[C@H]2c1c(O)cc(O)c2c1O[C@H](c1ccc(O)c(O)c1)[C@H](O)[C@H]2c1c(O)cc(O)c2c1O[C@H](c1ccc(O)c(O)c1)[C@H](O)C2 [Pentamers, epicatechin (4β,8)4-pentamer]
- Cytotoxicity to human breast cancer cell lines ([2]; purified from cocoa polyphenol extracts or prepared synthetically): cytotoxicity to human breast cancer cell lines
- % G0/G1 [1, 7]: 48.20%
- % G2/M [1, 7]: 20.68%
- % S [1, 7]: 31.12%
- % G0/G1 [1, 8]: 39.47%
- % G2/M [1, 8]: 37.14%
- % S [1, 8]: 23.39%
- % G0/G1 [1, 9]: 42.67%
- % G2/M [1, 9]: 38.71%
- % S [1, 9]: 18.63%
- % G0/G1 [1, 10]: 41.23%
- % G2/M [1, 10]: 20.12%
- % S [1, 10]: 39.65%
- % G0/G1 [1, 11]: 42.89%
- % G2/M [1, 11]: 17.68%
- % S [1, 11]: 39.43%
- % G0/G1 ([1]; Table 3, 200 μg/mL, 24 hr): 44.94%
- % G2/M ([1]; Table 3, 200 μg/mL, 24 hr): 17.05%
- % S ([1]; Table 3, 200 μg/mL, 24 hr): 38.01%
- Effect on cell cycle (G0/G1 arrest), in words [1]: caused a G0/G1 arrest

Compound: Oc1cc(O)c2c(c1)O[C@H](c1ccc(O)c(O)c1)[C@H](O)[C@H]2c1c(O)cc(O)c2c1O[C@H](c1ccc(O)c(O)c1)[C@H](O)[C@H]2c1c(O)cc(O)c2c1O[C@H](c1ccc(O)c(O)c1)[C@H](O)[C@H]2c1c(O)cc(O)c2c1O[C@H](c1ccc(O)c(O)c1)[C@H](O)[C@H]2c1c(O)cc(O)c2c1O[C@H](c1ccc(O)c(O)c1)[C@H](O)C2 [Synthetic pentamer, epicatechin (4β,8)4-pentamer]
- Cell growth inhibition ([2]; several breast cancer cell lines): inhibited cell growth
- Increase in G0/G1 arrest, synthetic compared to natural procyanidin ([1]; 200 μg/mL, 24 hr): approximately 30%
- % G0/G1 [1, 5]: 64.15%
- % G2/M [1, 5]: 12.49%
- % S [1, 5]: 23.36%

Compound: Oc1cc(O)c2c(c1)O[C@H](c1ccc(O)c(O)c1)[C@H](O)[C@H]2c1c(O)cc(O)c2c1O[C@H](c1ccc(O)c(O)c1)[C@H](O)[C@H]2c1c(O)cc(O)c2c1O[C@H](c1ccc(O)c(O)c1)[C@H](O)[C@H]2c1c(O)cc(O)c2c1O[C@H](c1ccc(O)c(O)c1)[C@H](O)C2 [Synthetic tetramer, epicatechin (4β,8)3-tetramer]
- Increase in G0/G1 arrest, synthetic compared to natural procyanidin ([1]; 200 μg/mL, 24 hr): approximately 15%
- % G0/G1 [1, 5]: 43.49%
- % G2/M [1, 5]: 17.03%
- % S [1, 5]: 39.39%

Compound: Oc1cc(O)c2c(c1)O[C@H](c1ccc(O)c(O)c1)[C@H](O)[C@H]2c1c(O)cc(O)c2c1O[C@H](c1ccc(O)c(O)c1)[C@H](O)[C@H]2c1c(O)cc(O)c2c1O[C@H](c1ccc(O)c(O)c1)[C@H](O)C2 [Synthetic trimer, epicatechin (4β,8)2-trimer]
- Increase in G0/G1 arrest, synthetic compared to natural procyanidin ([1]; 200 μg/mL, 24 hr): No difference in activity
- % G0/G1 [1, 5]: 26.98%
- % G2/M [1, 5]: 23.45%
- % S [1, 5]: 49.57%
